Molecular target: T1, FLT3-ITD (Homo sapiens, UniProt P36888)
T1 sequence (P36888 1-993): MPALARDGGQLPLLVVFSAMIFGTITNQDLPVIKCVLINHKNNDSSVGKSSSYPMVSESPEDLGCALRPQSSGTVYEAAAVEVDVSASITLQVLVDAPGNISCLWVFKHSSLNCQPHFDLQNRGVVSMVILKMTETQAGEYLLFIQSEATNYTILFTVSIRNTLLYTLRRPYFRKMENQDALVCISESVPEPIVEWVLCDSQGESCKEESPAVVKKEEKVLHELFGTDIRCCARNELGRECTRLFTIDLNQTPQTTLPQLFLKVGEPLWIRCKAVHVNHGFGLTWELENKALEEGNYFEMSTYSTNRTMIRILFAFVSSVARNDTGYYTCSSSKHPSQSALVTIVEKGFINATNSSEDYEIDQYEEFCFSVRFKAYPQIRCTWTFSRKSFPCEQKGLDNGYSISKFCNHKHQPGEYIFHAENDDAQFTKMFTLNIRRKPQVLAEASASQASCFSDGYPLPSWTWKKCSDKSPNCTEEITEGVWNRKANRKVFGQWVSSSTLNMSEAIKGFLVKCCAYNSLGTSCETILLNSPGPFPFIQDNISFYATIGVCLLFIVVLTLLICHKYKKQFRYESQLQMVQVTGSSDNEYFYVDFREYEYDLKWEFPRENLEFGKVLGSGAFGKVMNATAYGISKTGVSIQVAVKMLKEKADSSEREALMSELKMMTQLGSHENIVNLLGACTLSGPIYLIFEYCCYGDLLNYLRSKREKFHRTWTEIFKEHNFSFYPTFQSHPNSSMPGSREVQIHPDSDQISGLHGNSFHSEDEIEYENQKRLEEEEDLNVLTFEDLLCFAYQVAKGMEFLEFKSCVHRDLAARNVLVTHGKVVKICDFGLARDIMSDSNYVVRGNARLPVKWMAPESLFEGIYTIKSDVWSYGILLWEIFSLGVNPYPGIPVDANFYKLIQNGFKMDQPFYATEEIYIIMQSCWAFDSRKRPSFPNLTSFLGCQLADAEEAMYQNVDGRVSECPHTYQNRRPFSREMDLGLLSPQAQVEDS
Test: AlphaScreen kinase assay with recombinant enzyme, FLT3-ITD
Format: biochemical
Settings: 8pt; read-out: FLT3_ITD 8pt: IC50
How it was run: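 Read-out: AlphaScreen proximity signal at 580 nm (680 nm excitation), lost as peptide tyrosine phosphorylation falls. Substrate Biotin-GG(EEEEY)10EE at 30 nM; IC50 runs at 10 μM (FLT3 mutants) or 100 μM (c-KIT) final. Donor beads 20 min, then acceptor beads 60 min, room temperature.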

Row | Structure (SMILES) | IC50 [µM]
1 | CC1(N)CCCN(C(=O)c2cccc(-c3cnc4[nH]c(-c5ccccc5)cc4c3)n2)C1 (centres unmarked) [Compound P-0082, (3-amino-3-methyl-1-piperidyl)-[6-(2-phenyl-1H-pyrrolo[2,3-b]pyridin-5-yl)-2-pyridyl]methanone] | 0.0001 to 10
2 | N[C@@H]1CN(C(=O)c2cccc(-c3cnc4[nH]c(-c5ccccc5)cc4c3)n2)CC12CC2 [Compound P-0083, [(7S)-7-amino-5-azaspiro[2.4]heptan-5-yl]-[6-(2-phenyl-1H-pyrrolo[2,3-b]pyridin-5-yl)-2-pyridyl]methanone] | 0.0001 to 10
3 | CNC1CCN(Cc2cccc(-c3cnc4[nH]c(-c5ccccc5)cc4c3)n2)C1 (centres unmarked) [Compound P-0087, N-methyl-1-[[6-(2-phenyl-1H-pyrrolo[2,3-b]pyridin-5-yl)-2-pyridyl]methyl]pyrrolidin-3-amine] | 0.0001 to 10
4 | O=C(c1cccc(-c2cnc3[nH]c(-c4ccccc4)cc3c2)n1)N1CCC(F)(F)CC1 [Compound P-0089, (4,4-difluoro-1-piperidyl)-[6-(2-phenyl-1H-pyrrolo[2,3-b]pyridin-5-yl)-2-pyridyl]methanone] | 0.0001 to 10
5 | COC(=O)C1(C)CCN(C(=O)c2cccc(-c3cnc4[nH]c(-c5ccccc5)cc4c3)n2)CC1 [Compound P-0092, methyl 4-methyl-1-[6-(2-phenyl-1H-pyrrolo[2,3-b]pyridin-5-yl)pyridine-2-carbonyl]piperidine-4-carboxylate] | 0.0001 to 10
